Data: PubChem BioAssay (NCI)
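1) Cells in 96-well plates. 2) Compound, 48 h, 5 concentrations. 3) Linear interpolation between surrounding doses. 4) Unreached endpoint = highest concentration. GI50 marks 50% less growth. TGI marks complete inhibition of growth.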

Experiments:
Assay in all cases: growth of human tumour cells (NCI), 48 h
U251 CNS = test system: U251 CNS
SNB-75 CNS = test system: SNB-75 CNS
OVCAR-5 ovarian = test system: OVCAR-5 ovarian
EKVX NSCLC = test system: EKVX NSCLC
SF-539 CNS = test system: SF-539 CNS
M14 melanoma = test system: M14 melanoma
OVCAR-8 ovarian = test system: OVCAR-8 ovarian
NCI/ADR-RES ovarian = test system: NCI/ADR-RES ovarian
DU-145 prostate = test system: DU-145 prostate
SR leukemia = test system: SR leukemia

| SMILES | TGI (U251 CNS) [µM] | TGI (SNB-75 CNS) [µM] | TGI (OVCAR-5 ovarian) [µM] | TGI (EKVX NSCLC) [µM] | TGI (SF-539 CNS) [µM] | TGI (M14 melanoma) [µM] | TGI (OVCAR-8 ovarian) [µM] | GI50 (U251 CNS) [µM] | GI50 (NCI/ADR-RES ovarian) [µM] | TGI (NCI/ADR-RES ovarian) [µM] | GI50 (SNB-75 CNS) [µM] | GI50 (DU-145 prostate) [µM] | TGI (DU-145 prostate) [µM] | GI50 (OVCAR-5 ovarian) [µM] | GI50 (EKVX NSCLC) [µM] | GI50 (SF-539 CNS) [µM] | GI50 (M14 melanoma) [µM] | GI50 (OVCAR-8 ovarian) [µM] | GI50 (SR leukemia) [µM] | TGI (SR leukemia) [µM] |
| --- | --- | --- | --- | --- | --- | --- | --- | --- | --- | --- | --- | --- | --- | --- | --- | --- | --- | --- | --- | --- |
| CC(C(=O)c1ccc(Cl)cc1)C1OC(=O)C(Cl)=C1Cl (configuration not stated) | > 100 | > 100 | > 100 | > 100 | 70.9 | > 100 | > 100 |  |  |  |  |  |  |  |  |  |  |  |  |  |
| O=C1c2ccn(CCCCN3CCCCC3)c2C(=O)c2c1c(O)c1ccccc1c2O |  | > 73.8 | > 46 | 36.1 | 42.1 | 9.7 | > 100 | 6.16 | 14.4 | 55.6 | 8.45 | 14.1 | 30.3 | 17.9 | 15.2 | 6 | 2.46 | 3.52 |  |  |
| COc1cc(C2=NN(c3ccc(S(N)(=O)=O)cc3)C(c3ccc(Cl)cc3)C2)cc(OC)c1OC (configuration not stated) | > 100 | > 100 | > 100 |  | > 100 | > 100 | > 100 | 3.84 | 3.76 | > 100 | 2.22 | 9.78 | > 100 | 3.69 |  | 5.12 | 4.8 | 4.85 | 4.37 | > 100 |
| COc1cc(-c2cc(/C=C3\C(=O)Nc4ccccc43)[nH]n2)cc(OC)c1OC | 19.6 | 10 | 27.9 |  | 16.3 | 7.17 | 7.48 | 3.63 | 2.33 | 6.67 | 1.18 | 4.35 | 15.1 | 5.16 |  | 3.49 | 2.29 | 2.5 | 2.89 | 14.8 |
| C[C@@H](Oc1ccc2[nH]nc(/C=C/c3cnn(CCO)c3)c2c1)c1c(Cl)cncc1Cl | 2.41 | 0.561 | 2.29 |  | 0.268 | 3.11 | > 32.1 | 0.142 | 0.697 | 3.81 | 0.159 | 0.413 | > 43.6 | 0.166 |  | 0.035 | 0.739 | 0.329 | 0.0208 | 1.1 |
| CC1CCP(=O)(c2ccccc2)CC1 (configuration not stated) | > 100 | > 100 | > 100 | > 100 | > 100 | > 100 | > 100 |  |  |  |  |  |  |  |  |  |  |  |  |  |
| CCc1cccc(C(C)CC)c1NC(=O)C(=O)C(CC(=O)Nc1ccc(Cl)c(Cl)c1)C(=O)OC (configuration not stated) | > 100 | > 100 | > 100 | > 100 | > 100 | > 100 | > 100 |  |  |  |  |  |  |  |  |  |  |  |  | > 100 |
| CCCCN(CCCC)C(=O)C(=O)C(C)C(=O)CC (configuration not stated) | > 100 | > 100 | > 100 |  | > 100 | > 100 | > 100 |  |  |  |  |  |  |  |  |  |  |  |  |  |
| Cn1c2ccccc2c(=O)c2c([N+](=O)[O-])ccc(NCCN)c21 | 28.1 | 26.8 | 26.9 | 31 | 20.8 | 27.4 | 24.5 |  |  |  |  |  |  |  |  |  |  |  |  | > 100 |
| C=CCC(N[C@H](CO)c1ccccc1)c1cn(S(=O)(=O)c2ccc(C)cc2)c2ccccc12 (some centres not stated) | 36 | > 100 | > 100 | 74.8 | 38.2 | 31.5 | 29.5 | 17.6 | 18.9 | 46.2 | 66.2 | 26.7 | 67.2 | > 100 | 25.2 | 21.4 | 14.5 | 10.8 |  |  |
| COC(=O)OCc1ccc2c(c1)C(=O)c1c-2n(CCCBr)c(=O)c2cc([N+](=O)[O-])ccc12 | > 100 | 34.4 | > 100 | > 100 | > 100 |  | > 100 | 35.3 | > 100 | > 100 | 14.9 | > 100 | > 100 | > 100 | 74.3 | 56 |  | > 100 |  |  |
| CS(=O)(=O)CCn1c(=O)c(Oc2ccc(F)cc2F)cc2cnc(NC3CCOCC3)nc21 | > 25 | > 25 | > 25 |  | > 25 | > 25 | > 25 | > 25 | > 25 | > 25 | > 25 | > 25 | > 25 | > 25 |  | > 25 | > 25 | > 25 | > 25 | > 25 |
| CC(=O)c1cc2c(c3ccsc13)-c1ccccc1CC2 | > 100 | > 100 | > 100 | > 100 | > 100 | 89.8 | > 100 | 34.7 | 16.6 | 44.8 | > 100 | 23.5 | > 100 | 39.4 | 6.37 | 27.9 | 27.7 | 53.1 |  |  |
| Nc1ccc2ccc(NS(=O)(=O)N3CCCCC3)cc2c1 | > 42 | > 100 | > 100 | > 100 |  |  | > 100 | 0.392 |  |  | 0.446 | 1.45 | 22.2 |  | 2.05 |  |  | 1.63 | 0.215 | > 100 |
| N#C/C(N)=C(\C#N)N=Cc1csc2ccccc12 | 45.3 | 31.2 | > 100 | > 100 | 50.9 | > 100 | 55.7 | 20.2 | 32.4 | > 100 | 12.5 | 29.6 | > 100 | 67.1 | 27 | 20.1 | 46.8 | 20.8 |  |  |
| c1cc[c]([Sn]([S]c2cccc3cccnc23)([S]c2cccc3cccnc23)[c]2ccccc2)cc1 | 1.92 | 1.16 | 2.69 | 0.881 | 0.893 | 0.393 | 0.895 | 0.482 |  |  | 0.192 |  |  | 1.34 | 0.22 | 0.295 | 0.188 | 0.25 |  |  |
